Laboratory results from ChEMBL document CHEMBL1201862, “PubChem BioAssay data set” (2004).
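Method: 48-hour compound exposure of cells in 96-well plates, five concentrations, linear interpolation of endpoints. GI50: concentration for 50% inhibition of growth.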 Activity calls are given as the source filed them. No stated cut-off is given here; in the data, active = GI50 up to about 1.1 µM and inactive = higher.

Key:
Assay in all cases: DTP human tumour cell line panel, 48 h
A549 = system: A549
CAKI-1 = system: CAKI-1
COLO 205 = system: COLO 205
EKVX = system: EKVX
HCC 2998 = system: HCC 2998
HCT-116 = system: HCT-116
HOP-62 = system: HOP-62
IGROV-1 = system: IGROV-1
K562 = system: K562
M14 = system: M14
MOLT-4 = system: MOLT-4
Malme-3M = system: Malme-3M
NCI-H23 = system: NCI-H23
NCI-H522 = system: NCI-H522
OVCAR-3 = system: OVCAR-3
OVCAR-8 = system: OVCAR-8
SK-MEL-2 = system: SK-MEL-2
SNB-75 = system: SNB-75
SW-620 = system: SW-620
TK-10 = system: TK-10

Measured: GI50

CC(C)OP(=O)(OC(C)C)c1ncn(-c2ccc([N+](=O)[O-])cc2)n1
inactive: A549 > 100 µM | CAKI-1 > 100 µM | COLO 205 > 100 µM | EKVX > 100 µM | HCC 2998 86.7 µM | HCT-116 > 100 µM | HOP-62 > 100 µM | IGROV-1 > 100 µM | K562 > 100 µM | M14 > 100 µM | MOLT-4 > 100 µM | Malme-3M > 100 µM | NCI-H23 > 100 µM | NCI-H522 > 100 µM | OVCAR-3 > 100 µM | OVCAR-8 > 100 µM | SK-MEL-2 > 100 µM | SNB-75 41.1 µM | SW-620 > 100 µM | TK-10 > 100 µM

CC(C)(CCCCC(C)(C)C1NC(=O)N1)C1NC(=O)N1
inactive: A549 > 10 µM | CAKI-1 > 10 µM | COLO 205 > 10 µM | EKVX > 10 µM | HCC 2998 > 10 µM | HCT-116 > 10 µM | HOP-62 > 10 µM | IGROV-1 > 10 µM | K562 > 10 µM | M14 > 10 µM | MOLT-4 > 10 µM | Malme-3M > 10 µM | NCI-H23 > 10 µM | NCI-H522 > 10 µM | OVCAR-8 > 10 µM | SK-MEL-2 > 10 µM | SNB-75 > 10 µM | SW-620 > 10 µM | TK-10 > 10 µM

ClCCCN1CCCCC1CCl (stereo not drawn)
inactive: A549 > 100 µM | CAKI-1 26.7 µM | COLO 205 > 100 µM | HCC 2998 > 100 µM | HCT-116 > 100 µM | HOP-62 90.8 µM | IGROV-1 > 100 µM | K562 > 100 µM | M14 > 100 µM | MOLT-4 39.4 µM | Malme-3M > 100 µM | NCI-H23 65.3 µM | NCI-H522 > 100 µM | OVCAR-3 > 100 µM | OVCAR-8 > 100 µM | SK-MEL-2 > 100 µM | SNB-75 68.4 µM | SW-620 > 100 µM | TK-10 > 100 µM

N#CCCN(c1ccc(/C=N/c2cccc([N+](=O)[O-])c2)cc1)S(=O)(=O)c1ccccc1
inactive: A549 > 100 µM | CAKI-1 > 100 µM | COLO 205 > 100 µM | EKVX > 100 µM | HCC 2998 > 100 µM | HCT-116 > 100 µM | HOP-62 > 100 µM | IGROV-1 > 100 µM | K562 > 100 µM | M14 > 100 µM | MOLT-4 > 100 µM | Malme-3M > 100 µM | NCI-H23 > 100 µM | NCI-H522 > 100 µM | OVCAR-3 > 100 µM | OVCAR-8 > 100 µM | SK-MEL-2 > 100 µM | SNB-75 75.2 µM | SW-620 > 100 µM | TK-10 > 100 µM

C[C@]12CC[C@H]3[C@@H](CC=C4C[C@@H](O)CC[C@@]43C)[C@@H]1C/C(=C\c1ccc([N+](=O)[O-])cc1)[C@@H]2O
inactive: A549 10.4 µM | CAKI-1 13.8 µM | COLO 205 15.1 µM | EKVX 10.6 µM | HCC 2998 11.7 µM | HCT-116 3.92 µM | HOP-62 11.7 µM | IGROV-1 26 µM | K562 5.68 µM | M14 22.7 µM | MOLT-4 4.18 µM | Malme-3M 16 µM | NCI-H23 9.98 µM | NCI-H522 9.98 µM | OVCAR-3 16.3 µM | OVCAR-8 10.9 µM | SK-MEL-2 19.8 µM | SNB-75 17.4 µM | SW-620 26.7 µM | TK-10 19.4 µM
